# Read-outs that look alike come from different tables or passages of the source.
# Experiments:
# [1] = system: HEV-3 replicon p6-Gluc; test: microbe, parasite or virus in culture; format: cell-based, Hepatitis E virus; conditions: for EC50 / EC90: Hepatitis E virus
# [2] = system: HepG2 cells
# [3] = in vitro; conditions: human
# [4] = system: Huh-7 cells; conditions: human
# [5] = in vitro
# [6] = system: RVFV strain MP-12; test: microbe, parasite or virus in culture; format: cell-based; conditions: Rift Valley fever virus
# [7] = system: CHIKV LR2006-OPY1; test: microbe, parasite or virus in culture; format: cell-based; conditions: Chikungunya virus
# [8] = in vitro; conditions: human; remark: listed apart in the source
# [9] = system: Vero E6 cells; conditions: African green monkey (Chlorocebus sp.)
# [10] = system: SARS-CoV-2; test: microbe, parasite or virus in culture; format: cell-based
# [11] = African green monkey (Chlorocebus sp.)
# [12] = Severe acute respiratory syndrome coronavirus 2, Vero C1008, 24 h
# [13] = Severe acute respiratory syndrome coronavirus 2, Vero C1008, 48 h
SMILES,"EC50 ([1]; HepG2, 24 h)","EC90 ([1]; HepG2, 24 h)","EC50 ([1]; HepG2, 48 h)","EC90 ([1]; HepG2, 48 h)",CC50 [4],"CC50 [5, 11]","CC50 ([5]; chlorocebus sabaeus, CC50)","EC50 ([6]; Vero C1008, 24 h)","EC90 ([6]; Vero C1008, 24 h)","EC50 ([6]; Vero C1008, 48 h)","EC90 ([6]; Vero C1008, 48 h)","EC50 ([7]; Huh-7, 24 h)","EC90 ([7]; Huh-7, 24 h)","EC50 ([7]; Huh-7, 48 h)","EC90 ([7]; Huh-7, 48 h)",CC50 [8],CC50 at 24 h [3],CC50 at 48 h [3],"EC50 [10, 12]","EC90 [10, 12]",also measured
"COC(=O)[C@H]1[C@@H](O)[C@@]2(O)c3c(F)cc(F)cc3O[C@@]2(c2ccc(OC)cc2)[C@@H]1c1ccccc1 (racemic) [9c, (±)-Methyl (1R,2R,3S,3aR,8bS)-6,8-difluoro-1,8b-dihydroxy-3a-(4-methoxyphenyl)-3-phenyl-2,3,3a,8b-tetrahydro-1H-cyclopenta[b]benzofuran-2-carboxylate]",> 1000 nM,> 1000 nM,> 1000 nM,> 1000 nM,,,,,,,,,,,,,,,,,"EC50 ([1]; HepG2, 24 h, read-out: HEV, EC50 (24 h, nM)): > 1000 nM; EC90 ([1]; HepG2, 24 h, read-out: HEV, EC90 (24 h, nM)): > 1000 nM; EC50 ([1]; HepG2, 48 h, read-out: HEV, EC50 (48 h, nM)): > 1000 nM; EC90 ([1]; HepG2, 48 h, read-out: HEV, EC90 (48 h, nM)2): > 1000 nM; CC50 ([2]; read-out: HEP2G, CC50 (24 h), 24 h): > 1000 nM; CC50 ([2]; read-out: HEP2G, CC50 (48 h), 48 h): > 1000 nM; CC50 [3]: > 1000 nM"
"COC(=O)[C@H]1[C@@H](O)[C@@]2(O)c3c(Cl)cc(Cl)cc3O[C@@]2(c2ccc(OC)cc2)[C@@H]1c1ccccc1 (racemic) [9da, (±)-Methyl (1R,2R,3S,3aR,8bS)-6,8-dichloro-1,8b-dihydroxy-3a-(4-methoxyphenyl)-3-phenyl-2,3,3a,8b-tetrahydro-1H-cyclopenta[b]benzofuran-2-carboxylate]",25.4 nM,642 nM,17.5 nM,725 nM,> 1000 nM,> 1000 nM,> 1000 nM,102 nM,227 nM,143 nM,217 nM,18.1 nM,83.4 nM,22.4 nM,92.3 nM,> 1000 nM,798 nM,149 nM,111 nM,387 nM,"CC50 [9]: > 1000 nM; EC50 [10, 13]: 176 nM; EC90 [10, 13]: 558 nM"
"COC(=O)[C@H]1[C@@H](O)[C@@]2(O)c3c(OC)cc(Br)cc3O[C@@]2(c2ccc(OC)cc2)[C@@H]1c1ccccc1 (racemic) [9m, (±)-Methyl (1R,2R,3S,3aR,8bS)-6-bromo-1,8b-dihydroxy-8-methoxy-3a-(4-methoxyphenyl)-3-phenyl-2,3,3a,8b-tetrahydro-1H-cyclopenta[b]benzofuran-2-carboxylate]",3.1 nM,40.7 nM,1.4 nM,30.6 nM,> 1000 nM,> 1000 nM,> 1000 nM,26.6 nM,39.4 nM,43.3 nM,53.2 nM,2.1 nM,12.3 nM,2.9 nM,9.8 nM,> 1000 nM,421 nM,13.8 nM,33.9 nM,40.4 nM,"antiviral response at higher cell density [1]: decreased; cell viability at higher cell density [2]: improved; CC50 [9]: > 1000 nM; EC50 [10, 13]: 47.8 nM; EC90 [10, 13]: 80 nM"
"CONC(=O)[C@H]1[C@@H](O)[C@@]2(O)c3c(Cl)cc(Cl)cc3O[C@@]2(c2ccc(OC)cc2)[C@@H]1c1ccccc1 (racemic) [14da, (±)-(1R,2R,3S,3aR,8bS)-6,8-Dichloro-1,8b-dihydroxy-N-methoxy-3a-(4-methoxyphenyl)-3-phenyl-2,3,3a,8b-tetrahydro-1H-cyclopenta[b]benzofuran-2-carboxamide]",8.6 nM,172 nM,9.8 nM,134 nM,,,,,,,,,,,,,511 nM,31.8 nM,,,
"CONC(=O)[C@H]1[C@@H](O)[C@@]2(O)c3c(Cl)cc(Br)cc3O[C@@]2(c2ccc(OC)cc2)[C@@H]1c1ccccc1 (racemic) [14f, (±)-(1R,2R,3S,3aR,8bS)-6-Bromo-8-chloro-1,8b-dihydroxy-N-methoxy-3a-(4-methoxyphenyl)-3-phenyl-2,3,3a,8b-tetrahydro-1H-cyclopenta[b]benzofuran-2-carboxamide]",4.6 nM,53.4 nM,2.6 nM,30.2 nM,> 1000 nM,> 1000 nM,> 1000 nM,42.1 nM,92.5 nM,106 nM,113 nM,3.1 nM,19 nM,3.4 nM,20.2 nM,> 1000 nM,407 nM,15.6 nM,51.4 nM,920 nM,"EC50 [10, 13]: 190 nM; EC90 [10, 13]: 340 nM"
"CONC(=O)[C@H]1[C@@H](O)[C@@]2(O)c3c(F)cc(OC)cc3O[C@@]2(c2ccc(OC)cc2)[C@@H]1c1ccccc1 (racemic) [14hb, (±)-(1R,2R,3S,3aR,8bS)-8-Fluoro-1,8b-dihydroxy-N,6-dimethoxy-3a-(4-methoxyphenyl)-3-phenyl-2,3,3a,8b-tetrahydro-1H-cyclopenta[b]benzofuran-2-carboxamide]",17.2 nM,91.2 nM,10.9 nM,69.8 nM,,,,,,,,,,,,,491 nM,27.5 nM,,,
"CONC(=O)[C@H]1[C@@H](O)[C@@]2(O)c3c(OC)cc(Br)cc3O[C@@]2(c2ccc(OC)cc2)[C@@H]1c1ccccc1 (racemic) [14m, (±)-(1R,2R,3S,3aR,8bS)-6-Bromo-1,8b-dihydroxy-N,8-dimethoxy-3a-(4-methoxyphenyl)-3-phenyl-2,3,3a,8b-tetrahydro-1H-cyclopenta[b]benzofuran-2-carboxamide]",1 nM,328 nM,0.2 nM,1.6 nM,,,,,,,,,,,,,748 nM,1 nM,,,
"COC(=O)[C@H]1[C@@H](O)[C@@]2(O)c3c(OC)cc(OC)cc3O[C@@]2(c2ccc(OC)cc2)[C@@H]1c1ccccc1 (racemic) [(±)-methyl rocaglate (11bc), (±)-Methyl (1R,2R,3S,3aR,8bS)-1,8b-dihydroxy-6,8-dimethoxy-3a-(4-methoxyphenyl)-3-phenyl-2,3,3a,8b-tetrahydro-1H-cyclopenta[b]benzofuran-2-carboxylate, reference compound]",28.4 nM,631 nM,29.9 nM,188 nM,,,,,,,,,,,,,690 nM,65.3 nM,,,
"COc1ccc([C@@]23Oc4cc(OC)cc(OC)c4[C@]2(O)[C@H](O)[C@H](C(=O)N(C)C)[C@H]3c2ccccc2)cc1 (racemic) [(±)-rocaglamide (rac-1b), (±)-(1R,2R,3S,3aR,8bS)-1,8b-Dihydroxy-6,8-dimethoxy-3a-(4-methoxyphenyl)-N,N-dimethyl-3-phenyl-2,3,3a,8b-tetrahydro-1H-cyclopenta[b]benzofuran-2-carboxamide, reference compound]",27.8 nM,213 nM,21 nM,201 nM,,,,,,,,,,,,,550 nM,44.5 nM,,,
"COC(=O)[C@H]1[C@@H](O)[C@@]2(O)c3c(OC)cc(O[C@@H]4O[C@@H]([C@H](O)CO)CO[C@H]4OC)cc3O[C@@]2(c2ccc(OC)cc2)[C@@H]1c1ccccc1 [(−)-silvestrol (2a), silvestrol, reference compound]",4.2 nM,40.5 nM,2.2 nM,28.1 nM,,,,,,,,,,,,,180 nM,13.4 nM,,,

# From publication PMC10788925 (Journal of Medicinal Chemistry, 2023)
